Results: patent US10131619B2, “α-Asary-laldehyde ester, preparation method therefor, and application thereof” (NORTHWEST UNIVERSITY, priority 2014, dated 2018)
Marks after values point to notes of the source that are not given here.

What was measured:
KM mice = test: Maximal Electroshock Seizure (MES) test; type: in vivo; conditions: for MES: 6 mice
Procedure: (§1) The antiepileptic pharmacological tests were carried out using the anti-epileptic drug development program implemented by the National Institutes of Health (NIH), comprising the Maximal Electroshock Seizure (MES) for evaluating antiepileptic activity and the Rotarodtest for examining neurotoxicity. In order to further study and evaluate the pharmacological mechanism of anticonvulsant effect in different chemical models, two classic chemical model pentarotetrazole and 3-mercaptopropionic acid were used.
(1) Maximal Electroshock Seizure (MES)
Procedure: KM mice were subjected to the following preliminary screening before they were tested, and only qualified mice were screened for the next experiment. The screening method was performed as follows: the day before the test, the test mice electrically stimulated at 15V, 60 Hz, wherein two electrodes were clamped in each ear of the mice and powered for 0.45 seconds. Mice with hind limb rigidity were included in the experimental mice and used for later experiments. The Maximal Electroshock Seizure tolerance test was performed as follows: mice were administered intragastrically with the test compound after it is dissolved, and then at 0.25 h, 0.5 h, 1 h, 2 h, 3 h and 4 h after the administration, stimulated with the electrodes in their ears at 15V, 60 Hz electric stimulation for 0.45 s, respectively. […] According to the dosing regimen, concentration gradient was designed and the mice were administered with the test compound at different concentration gradient and observed for the anticonvulsant activity. Finally, the half effective dose of the test compound at the maximum anticonvulsant activity was calculated according to the following equation: ED50=1 g^−1[Xm−i(ΣP−0.5)] SX50=i(ΣP−ΣP^2/n−1)^1/2 • 95% confidence limit for ED50=1 g^−1(1 gED50±1.96 SX50) • wherein the meanings of the symbols in the equation are as follows: • Xm common logarithm for the maximum dose; • i common logarithm for the ratio between doses • p positive rate for each group, expressed in decimal places • n the number of animals per group • SX50 standard error of 1 gED50

[1] = Neurotoxicity test (Rotarod test); type: in vivo; conditions: KM, mouse, in vivo, po
Procedure: as §1
(§2) Procedure: experimental mice were place on a rotating bar fatigue device rotating at 16 revolutions per minute at 0.25 h, 0.5 h, 1 h, and 2 h after intragastric administration, respectively. […] According to the dosing regimen, concentration gradient was designed and the mice was administered with the test compound at different concentration gradient and observed for the anticonvulsant activity. Half toxic dose (TD50) was calculated according to the following equation: TD50=1 g^−1[Xm−i(ΣP−0.5)] SX50=i(ΣP−σP^2/n−1)^1/2 • 95% confidence limit for TD50=1 g^−1(1 gTD50±1.96 SX50) • wherein the meanings of the symbols in the equation are as follows: • Xm common logarithm for the maximum dose; • i common logarithm for the ratio between doses • p positive rate for each group, expressed in decimal places • n the number of animals per group • SX50 standard error of 1 gTD50

mice [2] = test: Neurotoxicity test (Rotarod test); type: in vivo
Procedure: as §1, §2

[3] = test system: 3-mercaptopropionic acid-induced epilepsy mice model; test: 3-mercaptopropionic acid-induced epilepsy experimental model; type: in vivo; conditions: for clonic seizures / latency / mortality rate / tonic seizures: n=6
Excerpt: (4) 3-mercaptopropionic Acid-induced Epilepsy Experimental Model

[4] = test system: pentylenetetrazole-induced epilepsy mice model; test: Pentylenetetrazole-induced epilepsy experimental model; conditions: for clonic seizures / latency / mortality rate / tonic seizures: n=6
Procedure: In order to deduce the possible anticonvulsant mechanism of α-Asaronol 3,4,5-trimethoxycinnamate, in this study, pentylenetetrazole, 3-mercaptopropionic acid and other chemical test modes were used to initially evaluate the anticonvulsant activity of the test compound (i.g: 160 mg/kg, 80 mg/kg, 40 mg/kg).
(3) Pentylenetetrazole-induced Epilepsy Experimental Model
Procedure: mice were randomly divided into five groups: treatment group (i.g: 160 mg/kg, 80 mg/kg, 40 mg/kg), control group and blank group (n=6). The treatment group was intragastrically administrated with the test compound, the control group with the positive drug carbamazepine, and the blank group with physiological saline. After 30 minutes, the mice were intragastrically administrated with pentylenetetrazole at 200 mg/kg. Each test animal was placed in one cage and observed for 60 minutes. The latency of clonic seizures, the number of clonic seizures, the number of tonic seizures, and the number of deaths for mice of each group were recorded.

mice [5] = conditions: Wang S. S. 1995; cited from earlier work

COc1cc(OC)c(OC)cc1/C=C/COC(=O)/C=C/c1cc(OC)c(OC)c(OC)c1
ED50 (KM mice; Mus musculus, po, MES, mice, i.g., 95% confidence limit 63.1-128.8, read-out: ED50 (half effective dose)): 90.3 mg/kg
MES (KM mice; i.g. 40 mg/kg, 0.25 h): 4/6
MES (KM mice; i.g. 40 mg/kg, 0.5 h): 5/6
MES (KM mice; i.g. 40 mg/kg, 1 h): 6/6
MES (KM mice; i.g. 40 mg/kg, 2 h): 6/6
MES (KM mice; i.g. 40 mg/kg, 3 h): 6/6
MES (KM mice; i.g. 40 mg/kg, 4 h): 6/6
MES (KM mice; i.g. 56 mg/kg, 0.25 h): 3/6
MES (KM mice; i.g. 56 mg/kg, 0.5 h): 4/6
MES (KM mice; i.g. 56 mg/kg, 1 h): 4/6
MES (KM mice; i.g. 56 mg/kg, 2 h): 5/6
MES (KM mice; i.g. 56 mg/kg, 3 h): 5/6
MES (KM mice; i.g. 56 mg/kg, 4 h): 5/6
MES (KM mice; i.g. 78 mg/kg, 0.25 h): 3/6
MES (KM mice; i.g. 78 mg/kg, 0.5 h): 3/6
MES (KM mice; i.g. 78 mg/kg, 1 h): 3/6
MES (KM mice; i.g. 78 mg/kg, 2 h): 3/6
MES (KM mice; i.g. 78 mg/kg, 3 h): 4/6
MES (KM mice; i.g. 78 mg/kg, 4 h): 4/6
MES (KM mice; i.g. 110 mg/kg, 0.25 h): 2/6
MES (KM mice; i.g. 110 mg/kg, 0.5 h): 1/6
MES (KM mice; i.g. 110 mg/kg, 1 h): 1/6
MES (KM mice; i.g. 110 mg/kg, 2 h): 2/6
MES (KM mice; i.g. 110 mg/kg, 3 h): 3/6
MES (KM mice; i.g. 110 mg/kg, 4 h): 3/6
MES (KM mice; i.g. 154 mg/kg, 0.25 h after administration): 1/6^c
MES (KM mice; i.g. 154 mg/kg, 0.5 h): 0
MES (KM mice; i.g. 154 mg/kg, 1 h): 1/6
MES (KM mice; i.g. 154 mg/kg, 2 h): 1/6
MES (KM mice; i.g. 154 mg/kg, 3 h): 3/6
MES (KM mice; i.g. 154 mg/kg, 4 h): 3/6
anticonvulsant activity in the Maximal Electroshock Seizure test (in words) (KM mice; mice, i.g.): good anticonvulsant activity
TD50 [1]: 940 mg/kg
PI, protection index (TD50/ED50) (mice [2]; mice, i.g., rotarod TD50 / MES ED50): 10.4
toxicity (in words) (mice [2]; mouse, in vivo): did not show significant toxicity
effect on inhibiting the tonic seizure and reducing the mortality compared with carbamazepine ([3]; 160 mg/kg, 80 mg/kg): comparable effect
time of clonic seizure compared with the physiological saline group ([3]; 160 mg/kg, 80 mg/kg, p<0.05): significantly prolong
clonic seizures ([3]; i.g. 40 mg/kg): 100%
latency ([3]; i.g. 40 mg/kg): 185.3 ± 39.8 s
mortality rate ([3]; i.g. 40 mg/kg): 50%
tonic seizures ([3]; i.g. 40 mg/kg): 50%
clonic seizures ([3]; i.g. 80 mg/kg): 83.3%
latency ([3]; i.g. 80 mg/kg): 192.8 ± 85.1 s
mortality rate ([3]; i.g. 80 mg/kg): 33.3%
tonic seizures ([3]; i.g. 80 mg/kg): 33.3%
latency ([3]; i.g. 160 mg/kg, 30 min before 3-mercaptopropionic acid 60 mg/kg): 241.5 ± 80.4 s
clonic seizures ([3]; i.g. 160 mg/kg): 50%
mortality rate ([3]; i.g. 160 mg/kg): 33.3%
tonic seizures ([3]; i.g. 160 mg/kg): 33.3%
3-mercaptopropionic acid-induced seizures (in words) ([3]; mouse, in vivo): moderately reduce
time of clonic seizure compared with the physiological saline group ([4]; 160 mg/kg, 80 mg/kg, 40 mg/kg, p<0.05): significantly prolong
effect on inhibiting the tonic seizure and reducing the mortality compared with carbamazepine ([4]; at the same dose): comparable effect
clonic seizures ([4]; i.g. 40 mg/kg): 100%
latency ([4]; i.g. 40 mg/kg): 205.6 ± 40.5 s
mortality rate ([4]; i.g. 40 mg/kg): 100%
tonic seizures ([4]; i.g. 40 mg/kg): 50%
clonic seizures ([4]; i.g. 80 mg/kg): 83.3%
latency ([4]; i.g. 80 mg/kg): 253.6 ± 58.2 s
mortality rate ([4]; i.g. 80 mg/kg): 66.7%
tonic seizures ([4]; i.g. 80 mg/kg): 33.3%
latency ([4]; i.g. 160 mg/kg, 30 min before pentylenetetrazole 200 mg/kg): 370.0 ± 84.8 s
clonic seizures ([4]; i.g. 160 mg/kg): 50%
mortality rate ([4]; i.g. 160 mg/kg): 16.7%
tonic seizures ([4]; i.g. 160 mg/kg): 33.3%

COC(=O)C=Cc1cc(OC)c(OC)c(OC)c1 [M-TMCA, methyl 3,4,5-trimethoxycinnamic acid]
time of pentobarbital sodium-induced sleep in mice (mice [5]): prolong

COc1ccc(C=CC(=O)O)cc1 [PMCA, p-methoxycinnamic acid]
time of pentobarbital sodium-induced sleep in mice (mice [5]): prolong

COc1cc(C=CC(=O)O)cc(OC)c1OC [TMCA, 3,4,5-trimethoxycinnamic acid]
time of pentobarbital sodium-induced sleep in mice (mice [5]): prolong

NC(=O)N1c2ccccc2C=Cc2ccccc21 [carbamazepine, reference compound]
clonic seizures ([3]; i.g. 83 mg/kg): 100%
latency ([3]; i.g. 83 mg/kg): 277.2 ± 93.1 s
mortality rate ([3]; i.g. 83 mg/kg): 33.3%
tonic seizures ([3]; i.g. 83 mg/kg): 33.3%
clonic seizures ([4]; i.g. 83 mg/kg): 100%
latency ([4]; i.g. 83 mg/kg): 476.8 ± 100.5 s
mortality rate ([4]; i.g. 83 mg/kg): 50%
tonic seizures ([4]; i.g. 83 mg/kg): 33.3%
